Data from article PMC12406681 (Antimicrobial Agents and Chemotherapy, 2025).
Where two headings read alike, the source gives them in different places.

Experiments:
Type in all cases: cell-based, La Crosse virus
[1] = tested on: LACV V27A mutant; settings: Vero cells; for Fold change (/original stock) / Fold change (/passage control): EC50 ratio; for EC50: mean ± SD
[2] = tested on: LACV V27A mutant
[3] = tested on: LACV D35G mutant; settings: Vero cells; for Fold change (/original stock) / Fold change (/passage control): EC50 ratio; for EC50: mean ± SD
[4] = tested on: LACV D35G mutant

SMILES | Fold change (/original stock) [1] | Fold change (/passage control) [1] | EC50 [1] | EC50 [2] | Fold change (/original stock) [2] | Fold change (/passage control) [2] | Fold change (/original stock) [3] | Fold change (/passage control) [3] | EC50 [3] | EC50 [4] | Fold change (/original stock) [4] | Fold change (/passage control) [4]
CC(C)N1CN(C2c3ccccc3CCc3ccccc32)n2cc(C(=O)O)c(=O)c(O)c2C1=O [CAPCA-1, carbamoyl pyridone carboxylic acid (CAPCA)-1] | 12.91 | 7.03 | 5.55 ± 1.64 µM | 4.63 ± 0.8 µM | 4.87 | 7.12 | >46.51 | >25.32 | > 20 µM | 12.9 ± 2.22 µM | 13.57 | 19.83
NC(=O)c1nc(F)c[nH]c1=O [T-705, favipiravir, reference compound] | 1.17 | 1.01 | 44.3 ± 5.15 µM |  |  |  | 1.51 | 1.30 | 57 ± 11.8 µM |  |  | 
